Reference: patent publication US9422293B2 (priority 2006, dated 2016)

molecular target: rat TRPV1 (Rattus norvegicus (Rat), UniProt O35433); settings: read-out: Rat IC50
Sequence (O35433 whole entry): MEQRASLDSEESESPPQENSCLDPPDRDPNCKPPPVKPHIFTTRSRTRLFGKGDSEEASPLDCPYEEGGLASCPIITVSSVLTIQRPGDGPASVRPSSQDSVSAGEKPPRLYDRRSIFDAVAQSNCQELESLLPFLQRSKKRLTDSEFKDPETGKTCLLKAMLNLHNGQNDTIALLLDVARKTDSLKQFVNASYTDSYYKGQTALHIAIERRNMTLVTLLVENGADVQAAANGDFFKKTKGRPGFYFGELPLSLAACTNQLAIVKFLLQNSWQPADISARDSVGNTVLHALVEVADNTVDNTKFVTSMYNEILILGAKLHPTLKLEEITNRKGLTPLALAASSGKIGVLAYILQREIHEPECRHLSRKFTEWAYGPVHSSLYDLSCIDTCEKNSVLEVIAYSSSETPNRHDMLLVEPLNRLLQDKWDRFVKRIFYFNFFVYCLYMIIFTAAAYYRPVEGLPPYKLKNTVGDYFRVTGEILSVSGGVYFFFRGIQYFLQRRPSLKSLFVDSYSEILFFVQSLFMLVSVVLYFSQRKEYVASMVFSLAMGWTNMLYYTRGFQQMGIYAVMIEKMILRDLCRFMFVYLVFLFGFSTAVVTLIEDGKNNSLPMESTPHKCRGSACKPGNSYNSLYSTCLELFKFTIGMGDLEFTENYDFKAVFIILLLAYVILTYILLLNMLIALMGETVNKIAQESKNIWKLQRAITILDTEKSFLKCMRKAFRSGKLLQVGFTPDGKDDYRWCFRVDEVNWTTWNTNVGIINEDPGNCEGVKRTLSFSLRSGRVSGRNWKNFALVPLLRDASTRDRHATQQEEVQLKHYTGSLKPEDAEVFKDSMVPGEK

Point of comparison: `Cc1cc(C(F)(F)F)ccc1Nc1nc(OC2CCOCC2)nc2c1CCN(c1ncccc1C(F)(F)F)CC2` [Example 312, N-[2-Methyl-4-(trifluoromethyl)phenyl]-2-(tetrahydro-2H-pyran-4-yloxy)-7-[3-(trifluoromethyl)pyridin-2-yl]-6,7,8,9-tetrahydro-5H-pyrimido[4,5-d]azepin-4-amine], IC50 0.45 µM. Against it:
- CCS(=O)(=O)c1cccnc1N1CCc2nc(SC)nc(Nc3ccc(C(F)(F)F)cc3)c2CC1 [Example 305, [7-(3-Ethanesulfonyl-pyridin-2-yl)-2-methylsulfanyl-6,7,8,9-tetrahydro-5H-pyrimido[4,5-d]azepin-4-yl]-(4-trifluoromethyl-phenyl)-amine] — 2.5-fold higher, 1.12 µM
- O=S(=O)(c1ccc(Nc2nc(OC3CCCCC3)nc3c2CCN(c2ncccc2C(F)(F)F)CC3)cc1)C(F)(F)F [Example 308, 2-(Cyclohexyloxy)-7-[3-(trifluoromethyl)pyridin-2-yl]-N-{4-[(trifluoromethyl)sulfonyl]phenyl}-6,7,8,9-tetrahydro-5H-pyrimido[4,5-d]azepin-4-amine] — within 1.5-fold, 0.36 µM
- Cc1cc(C(F)(F)F)ccc1Nc1nc(OC(C)C2CCCCC2)nc2c1CCN(c1ncccc1C(F)(F)F)CC2 (stereo not shown) [Example 309, 2-[(1-Cyclohexylethyl)oxy]-N-[2-methyl-4-(trifluoromethyl)phenyl]-7-[3-(trifluoromethyl)pyridin-2-yl]-6,7,8,9-tetrahydro-5H-pyrimido[4,5-d]azepin-4-amine] — 3.2-fold higher, 1.42 µM
- Cc1cc(C(F)(F)F)ccc1Nc1nc(OC2CCCC2)nc2c1CCN(c1ncccc1C(F)(F)F)CC2 [Example 310, 2-(Cyclopentyloxy)-N-[2-methyl-4-(trifluoromethyl)phenyl]-7-[3-(trifluoromethyl)pyridin-2-yl]-6,7,8,9-tetrahydro-5H-pyrimido[4,5-d]azepin-4-amine] — 6.4-fold lower, 0.07 µM
- CN1CCC(Oc2nc3c(c(Nc4ccc(C(F)(F)F)cc4)n2)CCN(c2ncccc2C(F)(F)F)CC3)CC1 [Example 311, 2-[(1-Methylpiperidin-4-yl)oxy]-N-[4-(trifluoromethyl)phenyl]-7-[3-(trifluoromethyl)pyridin-2-yl]-6,7,8,9-tetrahydro-5H-pyrimido[4,5-d]azepin-4-amine] — higher, > 20 µM
- Cc1cc(C(F)(F)F)ccc1Nc1nc(OC2CCOC2)nc2c1CCN(c1ncccc1C(F)(F)F)CC2 (stereo not shown) [Example 313, N-[2-Methyl-4-(trifluoromethyl)phenyl]-2-(tetrahydrofuran-3-yloxy)-7-[3-(trifluoromethyl)pyridin-2-yl]-6,7,8,9-tetrahydro-5H-pyrimido[4,5-d]azepin-4-amine] — within 1.5-fold, 0.56 µM
- CC(C)N1CCC(Oc2nc3c(c(Nc4ccc(C(F)(F)F)cc4)n2)CCN(c2ncccc2C(F)(F)F)CC3)C1 (stereo not shown) [Example 315, 2-{[1-(1-Methylethyl)pyrrolidin-3-yl]oxy}-N-[4-(trifluoromethyl)phenyl]-7-[3-(trifluoromethyl)pyridin-2-yl]-6,7,8,9-tetrahydro-5H-pyrimido[4,5-d]azepin-4-amine] — 12-fold higher, 5.52 µM
- CC(Oc1nc2c(c(Nc3ccc4c(c3)N(C)CCC4)n1)CCN(c1ncccc1C(F)(F)F)CC2)C1CCCCC1 (stereo not shown) [Example 316, 2-[(1-Cyclohexylethyl)oxy]-N-(1-methyl-1,2,3,4-tetrahydroquinolin-7-yl)-7-[3-(trifluoromethyl)pyridin-2-yl]-6,7,8,9-tetrahydro-5H-pyrimido[4,5-d]azepin-4-amine] — 2.6-fold higher, 1.18 µM
- CC(Oc1nc2c(c(Nc3ccc(S(=O)(=O)C(F)(F)F)cc3)n1)CCN(c1ncccc1C(F)(F)F)CC2)C1CC1 (stereo not shown) [Example 317, 2-[(1-Cyclopropylethyl)oxy]-7-[3-(trifluoromethyl)pyridin-2-yl]-N-{4-[(trifluoromethyl)sulfonyl]phenyl}-6,7,8,9-tetrahydro-5H-pyrimido[4,5-d]azepin-4-amine] — within 1.5-fold, 0.61 µM
